This passage reports EC50 results from patent US20240174727A1, “LONG-ACTING NATRIURETIC PEPTIDES AND USES THEREOF” (Eli Lilly and Company, priority 2022, published 2024).

This test has as its target T1, rat NPRA (Rattus norvegicus, UniProt P18910).
T1 construct: Full-Length cDNA Cloning and Generation of Cell Lines Overexpressing Natriuretic Peptide Receptors (NPRs); expressed in transfected cells; host or cells: Jump-in T-Rex HEK293 cells, pJTI R4 CMV-TO MCS pA vector, tetracycline induction
T1 sequence (P18910 29-1057): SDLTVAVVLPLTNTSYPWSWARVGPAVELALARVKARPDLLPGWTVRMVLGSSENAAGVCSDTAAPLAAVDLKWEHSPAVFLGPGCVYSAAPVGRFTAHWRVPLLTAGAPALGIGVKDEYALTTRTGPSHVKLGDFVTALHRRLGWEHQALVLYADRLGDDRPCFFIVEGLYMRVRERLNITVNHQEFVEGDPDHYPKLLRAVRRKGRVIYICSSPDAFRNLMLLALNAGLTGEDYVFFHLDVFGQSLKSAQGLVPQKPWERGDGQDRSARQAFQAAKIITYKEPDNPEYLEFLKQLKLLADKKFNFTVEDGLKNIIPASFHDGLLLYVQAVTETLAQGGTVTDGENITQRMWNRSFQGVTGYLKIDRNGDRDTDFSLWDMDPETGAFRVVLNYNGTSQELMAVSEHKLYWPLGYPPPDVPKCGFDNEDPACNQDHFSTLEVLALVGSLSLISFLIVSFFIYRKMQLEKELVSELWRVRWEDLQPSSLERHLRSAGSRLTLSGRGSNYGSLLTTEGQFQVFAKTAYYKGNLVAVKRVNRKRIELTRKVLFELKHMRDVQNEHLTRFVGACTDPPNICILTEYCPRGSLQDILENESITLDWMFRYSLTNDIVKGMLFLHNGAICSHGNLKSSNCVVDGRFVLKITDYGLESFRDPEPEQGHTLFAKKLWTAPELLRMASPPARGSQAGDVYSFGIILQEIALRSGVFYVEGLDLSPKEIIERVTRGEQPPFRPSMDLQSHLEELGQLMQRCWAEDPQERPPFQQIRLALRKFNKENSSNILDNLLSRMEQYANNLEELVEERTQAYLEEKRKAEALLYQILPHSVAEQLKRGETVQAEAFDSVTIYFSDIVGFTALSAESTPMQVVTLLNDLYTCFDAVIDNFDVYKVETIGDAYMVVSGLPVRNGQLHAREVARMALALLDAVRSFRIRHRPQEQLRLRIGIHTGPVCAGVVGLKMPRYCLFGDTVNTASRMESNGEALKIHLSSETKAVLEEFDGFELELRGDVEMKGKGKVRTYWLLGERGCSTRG
Briefly: Rat NPRA cGMP activity assay (HTRF) in HEK293 cells overexpressing NPRA. It counts as cell-based. The settings on record: assay buffer with 0.1% casein. The protocol: All sequences were verified by full-length sequencing performed by ACGT DNA Sequencing Services (Wheeling, IL). The target cDNA was cloned into pJTI R4 CMV-TO MCS pA vector and then co-transfected with pJT1R4 Int vector into Jump-in™ T-Rex™ HEK293 cells for mammalian inducible expression using Jump-in™ T-Rex™ HEK293 kit and Lipofectamine LTX and Plus Reagent following manufacturer's protocols, as briefly described below.
Jump-in™ T-Rex™ HEK293 cells were plated in a BioCOAT® poly-D-lysine coated 6-well plate (Becton Dickinson, cat no. 354413) at 1 million cells/well in 2 mL culture medium and incubated for 18 h at 37° C. and 5% CO2 to 50-70% confluence. A cDNA mix was made in a 50 mL tube by adding 1.5 μg target cDNA, 1.5 μg pJT1R4 Int vector, 3 μL Plus Reagent, and 300 μL Opti-MEM I sequentially into the tube. A reagent mix was made in a separate 50 mL tube by adding 7.5 μL Lipofectamine LTX into 300 μL Opti-MEM I. The mixtures were incubated for 5 min at room temperature. The cDNA mix was then transferred into the reagent mix, mixed well, and incubated for additional 30 min at room temperature. A 500 μL of cDNA/Lipofectamine complex was then transferred to the wells of the cell plate in which the culture medium was changed to 2 mL of transfection medium containing DMEM with 4.5 g/L D-glucose supplemented with 10% FBS-HI and 20 mM HEPES. Transfected cells were cultured for 48 h in an incubator at 37° C. and 5% CO2. A subclone or pool from each overexpressing cell line was maintained in culture medium with the addition of 2 mg/mL G418 sulfate for the clone selection based on its built-in resistance to G418 sulfate for at least 3 weeks with medium changed every 2-3 days.
NPRs were overexpressed in T-Rex™ HEK293 cells following the induction with 300 ng/mL tetracycline in culture medium for 48 h. Induced cell lines in an exponential growth phase were treated with 0.05% trypsin-EDTA for a few seconds at room temperature, harvested in cell medium containing FBS to neutralize the trypsin, counted, and cryopreserved at the density of 2 million cells/mL in cell preservation solution containing FBS-HI with 5% DMSO. Cryopreserved cells were stored at −80° C. for a few days prior to transferring to a liquid nitrogen tank. Induced cell lines were then used for suspension assays to measure the activity of polypeptides to stimulate cGMP production in cGMP assays or for the preparation of cell membranes to measure the binding activity of polypeptides in competitive radioligand binding assays, as described below.
Test polypeptides were added starting at 10 μM concentration and at 10-fold decreasing concentrations to obtain 8-point concentration-response curves (i.e., 10 μM to 1 pM). The quantity of cGMP generated was detected using HTRF® technology and normalized to maximum amount produced by 100 nM amidated rat ANP and the minimum amount produced by assay buffer. Detailed steps are outlined below.
Stock solutions of test polypeptides (2 mM) dissolved in DMSO were first diluted 100-fold in assay buffer containing HBSS with Ca^2+ and Mg^2+, 5 mM HEPES, 0.5 mM IBMX, and 0.1% BSA or 0.1% casein (pH 7.4). The polypeptides were further serially diluted in 1:10 dilution steps in assay buffer containing 0.1% BSA or 0.1% casein to generate 8-point 2× working stock solutions ranging from 20 μM to […].
A 10 μL cell suspension containing 4000 cells was plated in Costar® half-area white opaque 96-well plates (Corning, cat no. 3693). Then 10 μL of assay buffer (basal activity), 200 nM of amidated rat ANP (maximum activity) or 2× working stock solutions of test polypeptides were transferred into the plate. Final concentration of DMSO in each well was 0.5%. The plate was shaken for 15 sec and then incubated for 40 min at room temperature.
The cGMP generated was measured using cGMP kit following the manufacturer's directions, as described below.

Setting [1] is: read-out: cGMP Assay (EC50, pM) w/Casein rNPRA.

Where two headings read alike, the source gives them in different places. Numbered stars: 1 amine (or outer) side, 2 acyl side, 3 side chain; on linkers, the order of the positions; unused ones are H or OH. Bridge positions count the residues as written; N and C are the ends. Square brackets hold non-standard residues; d marks the D form. * marks the point of attachment. PEG24 = NCCOCCOCCOCCOCCOCCOCCOCCOCCOCCOCCOCCOCCOCCOCCOCCOCCOCCOCCOCCOCCOCCOCCOCCOCCC(=O)O; C20 diacid = O=C(O)CCCCCCCCCCCCCCCCCCC(=O)*; γGlu = O=C(O)[C@H](CCC(=O)[*:2])N[*:1]; CH2 = C([*:1])[*:2]

In turn, “{C20 diacid-γGlu}-EKEKEKGEKPRSSCFGKRIDRIGHQSGLGCPSFRHGSGSPSSGAPPPSG-NH2 (linker 14-30 via CH2) [Example 131]” showed an EC50 (cGMP Assay (EC50, pM) w/Casein rNPRA) of 2160 pM.

Turning to `CC[C@H](C)[C@@H]1NC(=O)[C@H](CCCNC(=N)N)NC(=O)[C@H](CC(=O)O)NC(=O)[C@H]([C@@H](C)CC)NC(=O)[C@H](CCCNC(=N)N)NC(=O)CNC(=O)CNC(=O)[C@H](Cc2ccccc2)NC(=O)[C@@H](NC(=O)[C@H](CO)NC(=O)[C@H](CO)NC(=O)[C@H](CCCNC(=N)N)NC(=O)[C@H](CCCNC(=N)N)NC(=O)[C@H](Cc2ccncc2)NC(=O)[C@H](CO)NC(=O)CCOCCOCCOCCOCCOCCOCCOCCOCCOCCOCCOCCOCCNC(=O)CNC(=O)[C@H](CCCCN)NC(=O)[C@H](CCC(=O)O)NC(=O)[C@H](CCCCN)NC(=O)[C@H](CCC(=O)O)NC(=O)[C@H](CCCCN)NC(=O)[C@H](CCC(=O)O)NC(=O)CC[C@H](NC(=O)CCCCCCCCCCCCCCCCCCC(=O)O)C(=O)O)CSCSC[C@@H](C(=O)N2CCC[C@H]2C(=O)N[C@@H](CO)C(=O)N[C@@H](Cc2ccccc2)C(=O)N[C@@H](CCCNC(=N)N)C(=O)N[C@@H](Cc2c[nH]cn2)C(=O)NCC(=O)NCC(=O)N[C@@H](CCCCN)C(=O)N[C@@H](CO)C(=O)N[C@@H](CO)C(=O)NCC(=O)N[C@@H](C)C(=O)N2CCC[C@H]2C(=O)N2CCC[C@H]2C(=O)N2CCC[C@H]2C(=O)N[C@@H](CO)C(N)=O)NC(=O)CNC(=O)[C@H](CC(C)C)NC(=O)CNC(=O)[C@H](CO)NC(=O)[C@H](CCC(N)=O)NC(=O)[C@H](Cc2c[nH]cn2)NC(=O)CNC1=O` [Example 82], under setting [1], the EC50 is 25400 pM.

In the case of “{C20 diacid-γGlu}-EKEKEKG[PEG24]EKPRSSCFGKGIDRIGHQSGLGCPSFRHSGSPSSGAPPPSG-NH2 (linker 15-31 via CH2) [Example 133, HOOC-(CH2)18-CO-(γGlu)-EKEKEKG-PEG24-EKPRSS[CFGKGIDRIGHQSGLGCJPSFRHSGSPSSGAPPPSG-NH2]”, the EC50 under setting [1] came out at 581000 pM.
